The source of these data is article PMC8039949, “A novel small-molecule PROTAC selectively promotes tau clearance to improve cognitive functions in Alzheimer-like models” (Theranostics, 2021).

The target of this assay is T1, human tau (hTau) (Homo sapiens, UniProt P10636).
T1 construct: expressed in transfected cells
Description: Tau clearance in HEK293-hTau cells by Western blotting. It counts as cell-based. The following applies: HEK293-hTau cells; 10 μM MG132 with 20 μM C004019; 24 h. The method, then: SH-SY5Y human neuroblastoma cells were cultured in 90% DME/F-12 medium (HyClone, SH30023.01) with 10% fetal bovine serum (FBS) (Biological Industries, 04-001-1ACS) and penicillin (100 U/mL)/ streptomycin (100 μg/mL) in a 37 °C incubator with humidified atmosphere of 5% CO2. Human embryonic kidney 293 cells (HEK293) or HEK293 with stable expression of wild-type full-length human tau (termed as HEK293-hTau) were cultured in 90% DMEM/High Glucose medium (HyClone, SH30022.01) containing 10% FBS and 200 μg/mL G418 (ThermoFisher Scientific, 10131027), in a humidified atmosphere of 5% CO2 at 37 °C. Neofect (DNA transfection reagent, TF20121201) was used for plasmids transfection. The cells were placed onto 6-well or 12-well plates. Plasmids (EGFP-hTau or 3xFlag-hTau or the vector), neofect and Opti-MEM medium (Gibco, 31985-070) were made into a mixture in a ratio of 1 μg: 1 μL : 100 μL and then added into each well of the plate. To inhibit proteasome activity, HEK293-hTau cells were cultured with DMEM/High medium containing 20 μM C004019 with or without 10 μM MG132, or the same volume of vehicle (DMSO) for 24 h at 37 °C. To induce tau hyperphosphorylation, SH-SY5Y cells were cultured with DME/F-12 medium containing 10 μM C004019 with or without 1 μM GFX and 1 μM WO for 24 h at 37 °C.
The cells or hippocampal/cortex tissues were homogenized for ~ 30 min on ice in buffer [50 mM Tris·HCl pH 7.4-7.5, 100 mM NaCl, 1% (vol/vol) Triton X-100, 5 mM EDTA, 1:100 PMSF, 1:1,000 protease inhibitor cocktail containing 4-(2-Aminoethyl)-benzenesulfonyl fluoride hydrochloride, aprotinin, bestatin, leupeptin, E-64, and pepstatin A stored at 4 °C], and then centrifuged at 12,000 × g at 4 °C for 20 min. The supernatant was collected and the protein levels were analyzed using bicinchoninic acid (BCA, KF016, Sigma-Aldrich) by following the manufacturer's instruction (served as soluble protein). The pellet was further incubated with 8% (wt/vol) SDS buffer at 4 °C and then treated by ultrasonic wave to reach a complete resuspension. […] Immunoreactive bands were quantitatively analyzed by Image J2x software.
Background: In western blotting, separated proteins are transferred to a membrane and probed.

Peptide text beside a SMILES is read from it. * marks the point of attachment. Cbz = O=C(OCc1ccccc1)*

T1 sequence (P10636 1-441 isoform P10636-8): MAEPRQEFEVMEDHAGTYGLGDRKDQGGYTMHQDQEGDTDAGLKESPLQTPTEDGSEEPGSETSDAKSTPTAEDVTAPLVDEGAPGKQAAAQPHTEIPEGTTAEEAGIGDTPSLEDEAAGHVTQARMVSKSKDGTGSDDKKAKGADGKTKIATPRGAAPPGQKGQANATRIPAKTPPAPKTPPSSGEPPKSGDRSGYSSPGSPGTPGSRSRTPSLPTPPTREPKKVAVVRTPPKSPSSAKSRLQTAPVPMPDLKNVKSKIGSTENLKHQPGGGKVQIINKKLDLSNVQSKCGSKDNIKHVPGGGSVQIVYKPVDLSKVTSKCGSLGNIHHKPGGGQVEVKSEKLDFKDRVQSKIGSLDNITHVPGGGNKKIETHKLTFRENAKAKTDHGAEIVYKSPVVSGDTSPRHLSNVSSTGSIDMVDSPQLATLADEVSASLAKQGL

Regarding `CC(C)C[C@@H](C=O)NC(=O)[C@H](CC(C)C)NC(=O)[C@H](CC(C)C)NC(=O)OCc1ccccc1` [MG132, reference compound] (Cbz-Leu-Leu-Leu-aldehyde), the “effect on C004019-induced clearance of tau (proteasome inhibition)” value is given as “abolished”.
